Reference: ChEMBL document CHEMBL4184197 (Bioorg Med Chem, 2018)

Legend:
[1] = test system: COS-7; test: Cytotoxicity against African green monkey COS7 cells assessed as cell death after 2 days by MTT assay; format: cell-based; settings: chlorocebus aethiops, cos-7, 48 h
[2] = test system: Salmonella typhimurium; test: Mutagenicity in Salmonella typhimurium TA98 in absence of rat liver S9 fraction by Ames test; format: toxicity, organism-based; settings: salmonella enterica subsp. enterica serovar typhimurium
[3] = test system: Salmonella typhimurium; test: Mutagenicity in Salmonella typhimurium TA1535 in presence of rat liver S9 fraction by Ames test; format: toxicity, organism-based; settings: salmonella enterica subsp. enterica serovar typhimurium
[4] = test system: CHO-K1; test: Genotoxicity in CHOK1 cells in presence of rat liver S9 fraction by fluorescence imaging based micronucleus assay; format: toxicity, cell-based, Cricetulus griseus; settings: chinese hamster
[5] = biological target: Beta-2 adrenergic receptor (Homo sapiens) (UniProt P07550); test: Binding affinity to recombinant human beta2 receptor at 10 uM after 120 mins by scintillation counting analysis relative to control
Sequence of Beta-2 adrenergic receptor (Homo sapiens) (P07550 whole entry, looked up): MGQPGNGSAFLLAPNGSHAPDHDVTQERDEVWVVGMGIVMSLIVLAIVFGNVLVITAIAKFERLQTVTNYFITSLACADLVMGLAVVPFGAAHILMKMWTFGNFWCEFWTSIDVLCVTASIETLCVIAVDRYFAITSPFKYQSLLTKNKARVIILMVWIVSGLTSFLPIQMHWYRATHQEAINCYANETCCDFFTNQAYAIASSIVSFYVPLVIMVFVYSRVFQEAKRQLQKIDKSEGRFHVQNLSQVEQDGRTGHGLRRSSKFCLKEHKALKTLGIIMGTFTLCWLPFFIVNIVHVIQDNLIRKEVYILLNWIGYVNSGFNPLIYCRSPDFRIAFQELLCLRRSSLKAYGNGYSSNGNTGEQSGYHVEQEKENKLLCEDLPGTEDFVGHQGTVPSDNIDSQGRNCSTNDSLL

[6] = biological target: Type-2 angiotensin II receptor (Homo sapiens) (UniProt P50052); test: Binding affinity to recombinant human AT2 receptor at 10 uM after 240 mins by scintillation counting analysis relative to control
[7] = biological target: Cannabinoid receptor 1 (Homo sapiens) (UniProt P21554); test: Binding affinity to recombinant human CB1 at 10 uM after 120 mins by scintillation counting analysis relative to control
[8] = biological target: Cholecystokinin receptor type A (Homo sapiens) (UniProt P32238); test: Binding affinity to recombinant human CCK1 at 10 uM after 60 mins by scintillation counting analysis relative to control
Sequence of Cholecystokinin receptor type A (Homo sapiens) (P32238 whole entry): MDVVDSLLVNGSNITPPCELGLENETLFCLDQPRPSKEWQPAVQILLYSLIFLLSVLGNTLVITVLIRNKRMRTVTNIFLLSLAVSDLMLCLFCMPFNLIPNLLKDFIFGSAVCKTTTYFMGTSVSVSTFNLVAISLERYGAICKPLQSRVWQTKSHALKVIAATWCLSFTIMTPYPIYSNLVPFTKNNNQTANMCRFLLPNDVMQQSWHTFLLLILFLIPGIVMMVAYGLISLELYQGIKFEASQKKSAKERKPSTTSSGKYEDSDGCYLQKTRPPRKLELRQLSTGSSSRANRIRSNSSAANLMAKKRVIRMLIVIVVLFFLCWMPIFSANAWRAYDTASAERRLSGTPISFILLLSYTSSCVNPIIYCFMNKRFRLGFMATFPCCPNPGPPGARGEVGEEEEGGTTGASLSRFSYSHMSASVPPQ

[9] = biological target: D(3) dopamine receptor (Homo sapiens) (UniProt P35462); test: Binding affinity to recombinant human dopamine receptor D3 at 10 uM after 60 mins by scintillation counting analysis relative to control
[10] = organism: Homo sapiens; test: Binding affinity to recombinant human dopamine receptor D4.4 at 10 uM after 60 mins by scintillation counting analysis relative to control
[11] = biological target: C-C chemokine receptor type 1 (Homo sapiens) (UniProt P32246); test: Binding affinity to recombinant human CCR1 receptor at 10 uM after 120 mins by scintillation counting analysis relative to control
[12] = biological target: Histamine H2 receptor (Homo sapiens) (UniProt P25021); test: Binding affinity to recombinant human histamine H2 receptor at 10 uM after 120 mins by scintillation counting analysis relative to control
[13] = biological target: Melanocortin receptor 4 (Homo sapiens) (UniProt P32245); test: Binding affinity to recombinant human MC4 receptor at 10 uM after 120 mins by scintillation counting analysis relative to control
[14] = biological target: Muscarinic acetylcholine receptor M2 (Homo sapiens) (UniProt P08172); test: Binding affinity to muscarinic M2 receptor (unknown origin)
[15] = biological target: Substance-P receptor (Homo sapiens) (UniProt P25103); test: Binding affinity to human NK1 receptor at 10 uM after 30 mins by scintillation counting analysis relative to control
Sequence of Substance-P receptor (Homo sapiens) (P25103 whole entry): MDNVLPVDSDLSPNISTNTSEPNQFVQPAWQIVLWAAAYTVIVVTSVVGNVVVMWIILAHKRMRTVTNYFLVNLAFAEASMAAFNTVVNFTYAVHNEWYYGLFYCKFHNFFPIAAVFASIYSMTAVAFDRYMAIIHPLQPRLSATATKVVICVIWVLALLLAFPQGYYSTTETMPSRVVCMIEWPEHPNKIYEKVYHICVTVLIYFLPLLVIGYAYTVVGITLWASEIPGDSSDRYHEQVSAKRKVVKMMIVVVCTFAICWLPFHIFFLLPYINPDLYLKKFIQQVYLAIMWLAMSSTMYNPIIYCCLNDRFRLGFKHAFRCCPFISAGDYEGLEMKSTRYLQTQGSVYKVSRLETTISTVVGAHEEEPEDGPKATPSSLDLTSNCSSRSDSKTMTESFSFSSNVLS

[16] = biological target: Neuromedin-K receptor (Homo sapiens) (UniProt P29371); test: Binding affinity to recombinant human NK3 receptor at 10 uM after 120 mins by scintillation counting analysis relative to control
[17] = biological target: Neuropeptide Y receptor type 2 (Homo sapiens) (UniProt P49146); test: Binding affinity to human Y2 receptor at 10 uM after 60 mins by scintillation counting analysis relative to control
Sequence of Neuropeptide Y receptor type 2 (Homo sapiens) (P49146 whole entry): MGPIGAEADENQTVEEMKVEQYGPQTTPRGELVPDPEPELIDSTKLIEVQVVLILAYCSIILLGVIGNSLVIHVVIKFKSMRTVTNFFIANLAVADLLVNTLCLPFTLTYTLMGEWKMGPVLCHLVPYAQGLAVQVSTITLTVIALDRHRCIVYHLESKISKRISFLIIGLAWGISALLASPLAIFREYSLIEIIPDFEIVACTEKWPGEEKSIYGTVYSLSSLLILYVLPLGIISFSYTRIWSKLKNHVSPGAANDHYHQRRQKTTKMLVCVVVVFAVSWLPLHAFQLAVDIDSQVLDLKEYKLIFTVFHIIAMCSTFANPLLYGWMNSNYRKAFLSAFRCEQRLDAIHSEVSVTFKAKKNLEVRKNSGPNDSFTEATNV

[18] = organism: Homo sapiens; test: Binding affinity to delta-2-opioid receptor (unknown origin) at 10 uM relative to control
[19] = biological target: Kappa-type opioid receptor (Homo sapiens) (UniProt P41145); test: Binding affinity to human kappa opioid receptor at 10 uM after 60 mins by scintillation counting analysis relative to control
Sequence of Kappa-type opioid receptor (Homo sapiens) (P41145 whole entry): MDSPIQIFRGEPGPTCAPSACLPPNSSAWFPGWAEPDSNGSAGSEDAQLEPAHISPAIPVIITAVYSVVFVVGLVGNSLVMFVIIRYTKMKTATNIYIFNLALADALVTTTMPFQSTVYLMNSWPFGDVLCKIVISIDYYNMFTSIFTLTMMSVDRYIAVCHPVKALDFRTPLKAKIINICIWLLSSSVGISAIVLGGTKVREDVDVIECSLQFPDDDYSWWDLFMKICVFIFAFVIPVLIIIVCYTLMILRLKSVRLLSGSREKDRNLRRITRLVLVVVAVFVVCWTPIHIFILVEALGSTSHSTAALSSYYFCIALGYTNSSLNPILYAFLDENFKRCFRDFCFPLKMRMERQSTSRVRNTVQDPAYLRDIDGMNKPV

[20] = biological target: Peroxisome proliferator-activated receptor gamma (Homo sapiens) (UniProt P37231); test: Binding affinity to recombinant human PPARgamma receptor at 10 uM after 120 mins by scintillation counting analysis relative to control
[21] = biological target: Prostaglandin E2 receptor EP2 subtype (Homo sapiens) (UniProt P43116); test: Binding affinity to recombinant human EP2 receptor at 10 uM after 120 mins by scintillation counting analysis relative to control
[22] = biological target: Prostacyclin receptor (Homo sapiens) (UniProt P43119); test: Binding affinity to recombinant human IP receptor at 10 uM after 60 mins by scintillation counting analysis relative to control
[23] = organism: Homo sapiens; test: Binding affinity to P2Y receptor (unknown origin) at 10 uM relative to control
[24] = biological target: 5-hydroxytryptamine receptor 5A (Homo sapiens) (UniProt P47898); test: Binding affinity to recombinant human 5-HT5A receptor at 10 uM after 120 mins by scintillation counting analysis relative to control
[25] = biological target: Estrogen receptor (Homo sapiens) (UniProt P03372); test: Binding affinity to human ER at 10 uM after 1200 mins by scintillation counting analysis relative to control
Sequence of Estrogen receptor (Homo sapiens) (P03372 whole entry): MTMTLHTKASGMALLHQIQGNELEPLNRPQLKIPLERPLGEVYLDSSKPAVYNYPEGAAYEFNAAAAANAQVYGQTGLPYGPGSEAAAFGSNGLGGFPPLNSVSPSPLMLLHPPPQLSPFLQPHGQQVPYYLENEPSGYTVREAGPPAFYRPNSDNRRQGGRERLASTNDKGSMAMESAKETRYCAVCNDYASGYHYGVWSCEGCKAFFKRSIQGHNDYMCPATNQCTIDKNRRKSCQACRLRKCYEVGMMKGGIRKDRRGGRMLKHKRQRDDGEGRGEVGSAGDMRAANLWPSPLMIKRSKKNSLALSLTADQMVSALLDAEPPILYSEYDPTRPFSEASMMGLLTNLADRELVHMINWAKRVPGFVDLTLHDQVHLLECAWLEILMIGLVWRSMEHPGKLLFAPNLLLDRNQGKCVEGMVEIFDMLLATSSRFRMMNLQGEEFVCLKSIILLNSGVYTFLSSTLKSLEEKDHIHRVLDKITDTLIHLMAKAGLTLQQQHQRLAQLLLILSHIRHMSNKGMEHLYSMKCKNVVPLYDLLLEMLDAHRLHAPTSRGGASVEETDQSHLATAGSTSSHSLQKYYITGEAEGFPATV

[26] = organism: Homo sapiens; test: Binding affinity to sodium channel (unknown origin) at 10 uM relative to control
[27] = organism: Homo sapiens; test: Binding affinity to chloride channel (unknown origin) at 10 uM relative to control
[28] = biological target: Secretory phospholipase A2 receptor (Homo sapiens) (UniProt Q13018); test: Binding affinity to recombinant human sPLA2 receptor at 10 uM after 20 mins by spectrophotometric analysis relative to control
Sequence of Secretory phospholipase A2 receptor (Homo sapiens) (Q13018 whole entry): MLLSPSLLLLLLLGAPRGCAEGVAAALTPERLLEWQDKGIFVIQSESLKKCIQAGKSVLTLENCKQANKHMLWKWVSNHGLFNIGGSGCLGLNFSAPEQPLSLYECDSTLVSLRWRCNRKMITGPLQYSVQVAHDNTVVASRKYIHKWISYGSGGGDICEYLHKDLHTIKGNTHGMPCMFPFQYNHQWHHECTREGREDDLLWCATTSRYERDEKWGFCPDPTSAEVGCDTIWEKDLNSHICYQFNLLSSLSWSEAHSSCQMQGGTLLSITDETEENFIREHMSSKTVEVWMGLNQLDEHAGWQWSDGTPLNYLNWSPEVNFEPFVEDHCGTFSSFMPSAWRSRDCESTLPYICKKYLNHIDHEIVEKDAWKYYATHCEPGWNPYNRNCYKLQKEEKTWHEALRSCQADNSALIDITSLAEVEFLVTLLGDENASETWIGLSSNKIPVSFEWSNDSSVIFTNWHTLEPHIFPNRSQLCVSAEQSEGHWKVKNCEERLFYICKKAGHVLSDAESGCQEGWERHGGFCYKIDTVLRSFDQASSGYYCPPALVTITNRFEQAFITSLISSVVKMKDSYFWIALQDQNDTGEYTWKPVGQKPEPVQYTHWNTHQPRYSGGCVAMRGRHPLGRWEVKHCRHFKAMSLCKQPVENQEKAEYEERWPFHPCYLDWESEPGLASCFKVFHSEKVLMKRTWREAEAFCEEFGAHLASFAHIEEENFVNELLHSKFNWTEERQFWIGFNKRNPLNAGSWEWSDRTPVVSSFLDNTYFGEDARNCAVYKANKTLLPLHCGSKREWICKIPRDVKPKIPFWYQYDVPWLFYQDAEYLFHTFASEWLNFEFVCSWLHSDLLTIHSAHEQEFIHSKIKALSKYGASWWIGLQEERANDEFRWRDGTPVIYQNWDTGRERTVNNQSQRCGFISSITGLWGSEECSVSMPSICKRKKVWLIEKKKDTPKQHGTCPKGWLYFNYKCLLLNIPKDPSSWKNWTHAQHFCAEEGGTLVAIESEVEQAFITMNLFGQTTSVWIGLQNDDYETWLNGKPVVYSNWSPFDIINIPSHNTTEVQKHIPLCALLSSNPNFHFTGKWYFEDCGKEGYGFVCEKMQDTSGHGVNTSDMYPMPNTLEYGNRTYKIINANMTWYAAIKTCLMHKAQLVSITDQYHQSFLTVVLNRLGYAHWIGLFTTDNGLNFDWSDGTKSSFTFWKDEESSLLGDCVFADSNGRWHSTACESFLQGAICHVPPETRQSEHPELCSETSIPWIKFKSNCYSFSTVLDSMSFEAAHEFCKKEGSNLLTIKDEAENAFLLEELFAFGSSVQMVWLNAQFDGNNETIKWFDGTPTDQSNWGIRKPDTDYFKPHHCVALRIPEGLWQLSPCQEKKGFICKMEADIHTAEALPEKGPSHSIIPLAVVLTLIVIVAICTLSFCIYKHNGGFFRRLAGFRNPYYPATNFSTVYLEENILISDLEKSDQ

[29] = biological target: cGMP-specific 3',5'-cyclic phosphodiesterase (Homo sapiens) (UniProt O76074); test: Binding affinity to human PDE5 at 10 uM after 60 mins by scintillation counting analysis relative to control
[30] = biological target: Endothelin-converting enzyme 1 (Homo sapiens) (UniProt P42892); test: Binding affinity to ECE-1 (unknown origin) at 10 uM relative to control
[31] = biological target: Caspase-3 (Homo sapiens) (UniProt P42574); test: Binding affinity to recombinant human caspase 3 at 10 uM after 60 mins by fluorescence assay relative to control
[32] = biological target: Neprilysin (Homo sapiens) (UniProt P08473); test: Binding affinity to neutral endopeptidase (unknown origin) at 10 uM by relative to control
Sequence of Neprilysin (Homo sapiens) (P08473 whole entry): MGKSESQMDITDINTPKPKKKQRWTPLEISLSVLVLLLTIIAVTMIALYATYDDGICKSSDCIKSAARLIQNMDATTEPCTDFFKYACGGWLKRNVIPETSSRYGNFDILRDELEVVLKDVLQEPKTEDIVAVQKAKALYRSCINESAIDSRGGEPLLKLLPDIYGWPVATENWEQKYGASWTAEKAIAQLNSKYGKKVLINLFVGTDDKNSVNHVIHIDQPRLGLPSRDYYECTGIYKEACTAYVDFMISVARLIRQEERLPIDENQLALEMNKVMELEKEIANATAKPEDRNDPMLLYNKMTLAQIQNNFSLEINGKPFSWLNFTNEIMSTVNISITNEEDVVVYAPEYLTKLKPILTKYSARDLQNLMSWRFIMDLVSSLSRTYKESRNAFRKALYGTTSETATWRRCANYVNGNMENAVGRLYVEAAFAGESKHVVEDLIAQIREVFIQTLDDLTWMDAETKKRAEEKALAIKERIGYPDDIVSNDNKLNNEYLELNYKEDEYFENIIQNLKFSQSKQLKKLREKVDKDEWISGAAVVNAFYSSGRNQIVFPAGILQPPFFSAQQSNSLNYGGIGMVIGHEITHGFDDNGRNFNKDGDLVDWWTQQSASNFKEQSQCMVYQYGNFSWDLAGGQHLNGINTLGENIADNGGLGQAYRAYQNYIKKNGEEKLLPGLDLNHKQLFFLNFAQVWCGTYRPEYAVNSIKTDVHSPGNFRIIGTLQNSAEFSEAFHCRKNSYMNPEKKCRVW

[33] = biological target: Proto-oncogene tyrosine-protein kinase Src (Homo sapiens) (UniProt P12931); test: Binding affinity to recombinant human Src at 10 uM after 10 mins by LANCE assay relative to control
[34] = biological target: Acetylcholinesterase (Homo sapiens) (UniProt P22303); test: Binding affinity to recombinant human acetylcholinesterase at 10 uM after 30 mins by spectrophotometric analysis relative to control
[35] = biological target: Histone deacetylase 4 (Homo sapiens) (UniProt P56524); test: Binding affinity to recombinant human HDAC4 at 10 uM after 30 mins by fluorescence analysis relative to control
[36] = biological target: Histone deacetylase 11 (Homo sapiens) (UniProt Q96DB2); test: Binding affinity to recombinant human HDAC11 at 10 uM after 30 mins by fluorescence analysis relative to control
[37] = biological target: NAD-dependent protein deacetylase sirtuin-1 (Homo sapiens) (UniProt Q96EB6); test: Binding affinity to surtuin-1 (unknown origin) at 10 uM by relative to control
[38] = biological target: NAD-dependent protein deacetylase sirtuin-2 (Homo sapiens) (UniProt Q8IXJ6); test: Binding affinity to surtuin-2 (unknown origin) at 10 uM by relative to control

CCOc1c(Cl)cc(C(=O)Nc2ccc(C(=O)O)c(C)c2)cc1OC(C)C
Activity [1]: Non-Toxic
Activity [2]: Non-Toxic
Activity [3]: Non-Toxic
Activity [4]: Non-Toxic
Activity [5]: < 25%
Activity [6]: < 25%
Activity [7]: < 25%
Activity [8]: < 25%
Activity [9]: < 25%
Activity [10]: < 25%
Activity [11]: < 25%
Activity [12]: < 25%
Activity [13]: < 25%
Activity [14]: < 25%
Activity [15]: < 25%
Activity [16]: < 25%
Activity [17]: < 25%
Activity [18]: < 25%
Activity [19]: < 25%
Activity [20]: < 25%
Activity [21]: < 25%
Activity [22]: < 25%
Activity [23]: < 25%
Activity [24]: < 25%
Activity [25]: < 25%
Activity [26]: < 25%
Activity [27]: < 25%
Activity [28]: < 25%
Activity [29]: < 25%
Activity [30]: < 25%
Activity [31]: < 25%
Activity [32]: < 25%
Activity [33]: < 25%
Activity [34]: < 25%
Activity [35]: < 25%
Activity [36]: < 25%
Activity [37]: < 25%
Activity [38]: < 25%
